Measurements published in patent US20250171457A1, “NITROGEN-CONTAINING HETEROCYCLIC COMPOUND HAVING NRF2 ACTIVATION EFFECT” (CHUGAI SEIYAKU KABUSHIKI KAISHA, priority 2022, published 2025).
Read-outs that look alike come from different tables or passages of the source.

Legend:
[1] = system: Nrf2 transcriptional activity (pARE-Luc reporter) in HepG2 cells; assay: In vitro Nrf2 transcriptional activity measurement by ARE-dependent reporter assay in HepG2 cell; assay type: cell-based, human
Summary of the method: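 HepG2 cells transfected with pGL4.37 (pARE-Luc), replated onto compound and incubated 4 h at 37° C; luciferase read by Bright-Glo luminescence. Response normalized to 100% set by a reference compound at 3.75 μM; EC50 from dose-response curve.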

[2] = system: Nqo1 (NAD(P)H quinone dehydrogenase 1) mRNA, Nrf2 downstream molecule; assay: In vivo Nrf2 transcriptional activity measurement (Nqo1 mRNA in organs by qPCR); conditions: Mus musculus, C57BL/6J mice, 7 to 8 hours
Procedure: Test Example 2: In Vivo Nrf2 Transcriptional Activity Measurement
A test compound (solvent: 10 vol % dimethyl sulfoxide/50 mM glycine/32 mM sodium hydroxide/physiological saline) was administered to C57BL/6J mice (7-8 weeks old), which were euthanized by whole blood collection under isoflurane anesthesia 7 to 8 hours later, followed by the collection of various organs. mRNA was purified from the collected organs, and the mRNA expression level of Mapk1 as an internal control and the mRNA expression level of Nqo1 (NAD(P)H quinone dehydrogenase 1) as a typical Nrf2 downstream molecule were each measured by qPCR. The Nqo1 mRNA expression level was quantified by comparative CT, and an expression level ratio to a non-administration group was calculated. The administration of the test compound elevated the Nqo1 mRNA expression level in the various organs, confirming that the test compound also has a Nrf2-activating effect in vivo.

[3] = Homo sapiens, HepG2 cells transfected with pARE-Luc, 4 hours at 37° C., luciferase activity of Example 1-54 or Example 17-23 at 3.75 μM defined as 100%
[4] = ip, Intraperitoneal, kidney, read-out: Nqo1 mRNA expression level ratio to non-administration group, Kidney
[5] = ip, Intraperitoneal, liver, read-out: Nqo1 mRNA expression level ratio to non-administration group, Liver
[6] = ip, Intraperitoneal, lung, read-out: Nqo1 mRNA expression level ratio to non-administration group, Lung
[7] = Oral, kidney, read-out: Nqo1 mRNA expression level ratio to non-administration group, Kidney
[8] = Oral, liver, read-out: Nqo1 mRNA expression level ratio to non-administration group, Liver
[9] = Oral, lung, read-out: Nqo1 mRNA expression level ratio to non-administration group, Lung

| SMILES | EC50 [1, 3] [nM] | fold induction at 15 mg/kg [2, 4] | fold induction at 15 mg/kg [2, 5] | fold induction at 15 mg/kg [2, 6] | fold induction at 10 mg/kg [2, 4] | fold induction at 10 mg/kg [2, 5] | fold induction at 10 mg/kg [2, 6] | fold induction at 30 mg/kg [2, 7] | fold induction at 30 mg/kg [2, 8] | fold induction at 30 mg/kg [2, 9] | also measured |
| --- | --- | --- | --- | --- | --- | --- | --- | --- | --- | --- | --- |
| COC1CC2(C1)CN(c1cc(Cl)c(C(=O)N3COc4c(cccc4-c4ccc(C(=O)O)c(N5C6CCC5COC6)c4)C3)c(Cl)c1)C2 [Compound 1-83, 4-[3-[2,6-Dichloro-4-(6-methoxy-2-azaspiro[3.3]heptan-2-yl)benzoyl]-2,4-dihydro-1,3-benzoxazin-8-yl]-2-(3-oxa-8-azabicyclo[3.2.1]octan-8-yl)benzoic acid] | 2.4 | 4.7 | 6.5 | 21 | – | – | – | – | – | – | – |
| COC1CC2(C1)CN(c1ccc(C(=O)N3COc4c(cccc4-c4cc(N5C6CCC5COC6)c(C(=O)O)cc4F)C3)c(Cl)c1)C2 [Compound 1-88, 4-[3-[2-Chloro-4-(6-methoxy-2-azaspiro[3.3]heptan-2-yl)benzoyl]-2,4-dihydro-1,3-benzoxazin-8-yl]-5-fluoro-2-(3-oxa-8-azabicyclo[3.2.1]octan-8-yl)benzoic acid] | 2.1 | 3 | 4.3 | 6.1 | – | – | – | – | – | – | fold induction at 15 mg/kg [2, 7]: 3.4; fold induction at 15 mg/kg [2, 8]: 5.4; fold induction at 15 mg/kg [2, 9]: 8.9 |
| COc1ccc(-c2cc(Cl)c(C(=O)N3COc4c(cccc4-c4cc(N5C6CCC5COC6)c(C(=O)O)cc4F)C3)c(Cl)c2)cn1 [Compound 2-2, 4-[3-[2,6-Dichloro-4-(6-methoxypyridin-3-yl)benzoyl]-2,4-dihydro-1,3-benzoxazin-8-yl]-5-fluoro-2-(3-oxa-8-azabicyclo[3.2.1]octan-8-yl)benzoic acid] | 6.5 | – | – | – | 5.3 | 5.8 | 17 | – | – | – | – |
| CCN1CCN(c2cc(Cl)c(C(=O)N3COc4c(cccc4-c4cc(N5C6CCC5COC6)c(C(=O)O)cc4F)C3)c(Cl)c2)CC1 [Compound 4-8, 4-[3-[2,6-Dichloro-4-(4-ethylpiperazin-1-yl)benzoyl]-2,4-dihydro-1,3-benzoxazin-8-yl]-5-fluoro-2-(3-oxa-8-azabicyclo[3.2.1]octan-8-yl)benzoic acid] | 5.8 | – | – | – | 3.4 | 6.7 | 6.2 | – | – | – | – |
| COCCOc1cc(Cl)c(C(=O)N2COc3c(cccc3-c3cc(N4C5CCC4COC5)c(C(=O)O)cc3F)C2)c(Cl)c1 [Compound 4-37, 4-[3-[2,6-Dichloro-4-(2-methoxyethoxy)benzoyl]-2,4-dihydro-1,3-benzoxazin-8-yl]-5-fluoro-2-(3-oxa-8-azabicyclo[3.2.1]octan-8-yl)benzoic acid] | 6.3 | – | – | – | 4 | 8 | 5.4 | – | – | – | – |
| COC1(OC)CN(c2cc(Cl)c(C(=O)N3COc4c(cccc4-c4cc(N5C6CCC5COC6)c(C(=O)O)cc4F)C3)c(Cl)c2)C1 [Compound 5-1, 4-[3-[2,6-Dichloro-4-(3,3-dimethoxyazetidin-1-yl)benzoyl]-2,4-dihydro-1,3-benzoxazin-8-yl]-5-fluoro-2-(3-oxa-8-azabicyclo[3.2.1]octan-8-yl)benzoic acid] | 1.6 | – | – | – | 4.4 | 6.8 | 19 | 5.1 | 3.9 | 17 | – |
| O=C(O)c1cc(F)c(-c2cccc3c2OCN(C(=O)c2c(Cl)cc(N4CC5(C4)OCCCO5)cc2Cl)C3)cc1N1C2CCC1COC2 [Compound 5-2, 4-[3-[2,6-Dichloro-4-(5,9-dioxa-2-azaspiro[3.5]nonan-2-yl)benzoyl]-2,4-dihydro-1,3-benzoxazin-8-yl]-5-fluoro-2-(3-oxa-8-azabicyclo[3.2.1]octan-8-yl)benzoic acid] | 1.3 | – | – | – | 4.3 | 6.9 | 20 | 4 | 6.9 | 20 | – |
| CC1COC2(CN(c3cc(Cl)c(C(=O)N4COc5c(cccc5-c5cc(N6C7CCC6COC7)c(C(=O)O)cc5F)C4)c(Cl)c3)C2)OC1 [Compound 5-7, 4-[3-[2,6-Dichloro-4-(7-methyl-5,9-dioxa-2-azaspiro[3.5]nonan-2-yl)benzoyl]-2,4-dihydro-1,3-benzoxazin-8-yl]-5-fluoro-2-(3-oxa-8-azabicyclo[3.2.1]octan-8-yl)benzoic acid] | 1.7 | – | – | – | 4 | 5.4 | 18 | – | – | – | – |
| CC1(C)COC2(CN(c3cc(Cl)c(C(=O)N4COc5c(cccc5-c5cc(N6C7CCC6COC7)c(C(=O)O)cc5F)C4)c(Cl)c3)C2)OC1 [Compound 5-9, 4-[3-[2,6-Dichloro-4-(7,7-dimethyl-5,9-dioxa-2-azaspiro[3.5]nonan-2-yl)benzoyl]-2,4-dihydro-1,3-benzoxazin-8-yl]-5-fluoro-2-(3-oxa-8-azabicyclo[3.2.1]octan-8-yl)benzoic acid] | – | 3.7 | 6.7 | 15 | – | – | – | 5.2 | 6 | 19 | EC50 ([1]; HepG2 cells transfected with pARE-Luc, 4 hours at 37° C., luciferase activity of Example 1-54 or Example 17-23 at 3.75 μM defined as 100%, second printing of Table 20-1): 1.7 nM |
| O=C(O)c1cc(F)c(-c2cccc3c2OCN(C(=O)c2c(Cl)cc(N4CC5(C4)CC4(C5)OCCCO4)cc2Cl)C3)cc1N1C2CCC1COC2 [Compound 5-10, 4-[3-[2,6-Dichloro-4-(7,11-dioxa-2-azadispiro[3.1.56.14]dodecan-2-yl)benzoyl]-2,4-dihydro-1,3-benzoxazin-8-yl]-5-fluoro-2-(3-oxa-8-azabicyclo[3.2.1]octan-8-yl)benzoic acid] | 3.2 | 5.1 | 5.4 | 17 | – | – | – | – | – | – | – |
| COC1(OC)CN(c2cc(Cl)c(C(=O)N3COc4c(cccc4-c4ccc(C(=O)O)c(N5C6CCC5COC6)c4)C3)c(Cl)c2)C1 [Compound 5-16, 4-[3-[2,6-Dichloro-4-(3,3-dimethoxyazetidin-1-yl)benzoyl]-2,4-dihydro-1,3-benzoxazin-8-yl]-2-(3-oxa-8-azabicyclo[3.2.1]octan-8-yl)benzoic acid] | 3.5 | – | – | – | – | – | – | – | – | – | fold induction at 15 mg/kg [2, 7]: 3.6; fold induction at 15 mg/kg [2, 8]: 4.8; fold induction at 15 mg/kg [2, 9]: 14 |
| O=C(O)c1cc(F)c(-c2cccc3c2OCN(C(=O)c2c(Cl)cc(N4CC5(CN(CC(F)F)C5)C4)cc2Cl)C3)cc1N1C2CCC1COC2 [Compound 7-2, 4-[3-[2,6-Dichloro-4-[6-(2,2-difluoroethyl)-2,6-diazaspiro[3.3]heptan-2-yl]benzoyl]-2,4-dihydro-1,3-benzoxazin-8-yl]-5-fluoro-2-(3-oxa-8-azabicyclo[3.2.1]octan-8-yl)benzoic acid] | 4.6 | 4.3 | 6.2 | 11 | – | – | – | – | – | – | – |
| COC1CC2(C1)CN(c1cc(Cl)c(C(=O)N3COc4c(cccc4-c4cc(N5C6CCC5COC6)c(C(=O)O)cc4F)C3)c(Cl)c1)C2 [Compound 13-16, 4-[3-[2,6-Dichloro-4-(6-methoxy-2-azaspiro[3.3]heptan-2-yl)benzoyl]-2,4-dihydro-1,3-benzoxazin-8-yl]-5-fluoro-2-(3-oxa-8-azabicyclo[3.2.1]octan-8-yl)benzoic acid] | – | 4.8 | 6.6 | 20 | – | – | – | 4.5 | 6 | 22 | EC50 ([1]; HepG2 cells, pARE-Luc reporter, 4 hours, 100% = Example 1-54 or Example 17-23 at 3.75 μM): 0.95 nM |
